The nature of series [1]: Aqueous solubility of the drugs. The format is physicochemical. The note with it: aqueous medium (not specified further).
A short description of series [2]: In vitro membrane permeation test (maximum flux of drug across membrane). The note with it: 100 μgA/mL; for Maximum Flux of Drug 5: Table 15, feed 0.5 wt % NaTC/POPC, permeate 60 wt % decanol in decane.
Source text: An Accurel® PP 1E microporous polypropylene membrane was obtained from Membrana GmbH (Wuppertal, Germany). The membrane was washed in isopropyl alcohol and rinsed in methanol in a sonicating bath for one minute at ambient temperature, and then allowed to air dry at ambient temperature. The feed side of the membrane was then plasma-treated to render it hydrophilic by placing a sample of the membrane in a plasma chamber. The atmosphere of the plasma chamber was saturated with water vapor at a pressure of 550 mtorr. A plasma was then generated using radio frequency (RF) power inductively coupled into the chamber via annular electrodes at a power setting of 50 Watts for 45 seconds. The contact angle of a drop of water placed on the surface of the plasma-treated membrane was about 40°. The contact angle of a drop of water placed on the permeate side of the same membrane was greater than about 110°.
A permeate reservoir was formed by capping the open end of a glass tube having an inside diameter of about 2 54 cm by gluing a sample of the plasma-treated membrane to the tube using an epoxy-based glue (LOCTITE® E-30CL HYSOL® from Henkel Loctite Corp, Rocky HUI, Conn.). The membrane was oriented so that its feed side was on the outside of the permeate reservoir and its permeate side was on the inside of the reservoir. The effective membrane area of the membrane capping the permeate reservoir was about 4.9 cm^2. The permeate reservoir was placed into a glass feed reservoir. The feed reservoir was equipped with a magnetic stir bar and the reservoir was placed on a stir plate and the stir rate was set to 100 rpm during the test. The apparatus was placed into a chamber maintained at 37° C. for the duration of the test.
To this was added 5 mL of an aqueous solution designed to model the fed state, consisting of a Phosphate Buffered Solution (PBS) containing 29.2 mM or 2 wt % sodium taurocholic acid and 5.6 mM of 1-palmitoyl-2-oleyl-sn-glycero-3-phosphocholine (NaTC/POPC). […] The feed solution was mixed using a vortex mixer for 1 minute. Before the membrane contacted the feed solution, 5 mL of 20 wt % decanol in decane was placed into the permeate reservoir. Time zero in the test was when the membrane was placed in contact with the feed solution. A 50 μL aliquot of the permeate solution was collected at 20, 40, 60, 90, 120, 180, 240, and 350 minutes. Samples were then diluted in 250 μL isopropyl alcohol and analyzed using HPLC.
The maximum flux of drug across the membrane (in units of μgA/cm^2-min) was determined by performing a least-squares fit to the data to obtain the maximum slope, multiplying the slope by the permeate volume (5 mL), and dividing by the membrane area (4.9 cm^2).
The maximum flux of drug across the membrane (in units of μgA/cm^2-min) was determined by estimating the tangent to the concentration versus time curve at time 0.
To this was added 5 mL of the Model Fasted Duodenum (MFD) solution consisting of Phosphate Buffered Saline (PBS) solution containing 7.3 mM sodium taurocholic acid and 1.4 mM of 1-palmitoyl-2-oleyl-sn-glycero-3-phosphocholine (0.5% NaTC/POPC). […] The feed solutions were each mixed using a vortex mixer for 1 minute. Before the membrane contacted the feed solutions, 5 mL of 20 wt % decanol in n-decane was placed into the permeate reservoir. Time zero in the test was when the membrane was placed in contact with the feed solution. […] Samples were then diluted in 250 μL isopropyl alcohol and analyzed using HPLC.
Series [3] is described as follows: Microcentrifuge dissolution test. Format: physicochemical.
[4] abbreviates: Table 19, Drug 2, MFD solution, 1000 μgA/mL.
[5] abbreviates: Table 18, Drug 1, PBS pH 6.5, 37° C., 1000 μgA/mL.
[6] abbreviates: Table 20, Drug 1, microcentrifuge dissolution test described above.

Read-outs that look alike come from different tables or passages of the source.

This note sets out measurements from patent US8617604B2, “Pharmaceutical compositions with enhanced performance” (Bend Research, Inc., priority 2005, dated 2013).

As a reminder, the solubility is the dissolved amount per volume that the medium holds. `O=C1Cc2cc(CCN3CCN(c4nsc5ccccc45)CC3)c(Cl)cc2N1` [Drug 4]: the solubility was under 0.1 µg/mL in series [1] (free base form) and about 10 µg/mL in series [1] (hydrochloride salt form).
As to `O=C1Cc2cc(CCN3CCN(c4nsc5ccccc45)CC3)c(Cl)cc2N1` [Control C5], the “Maximum Flux of Drug 5” value in series [2] came out at 0.099 μgA/cm^2-min.
With `O=C1Cc2cc(CCN3CCN(c4nsc5ccccc45)CC3)c(Cl)cc2N1` [Control C6], in series [2], the “Maximum Flux of Drug 5” value came out at 0.07 μgA/cm^2-min.
In series [1], `CCOC(=O)N1c2ccc(C(F)(F)F)cc2[C@@H](N(Cc2cc(C(F)(F)F)cc(C(F)(F)F)c2)C(=O)OC)C[C@H]1CC` [Drug 1, [2R,4S]-4[(3,5-bis-trifluoromethyl-benzyl)-methoxycarbonyl-amino]-2-ethyl-6-trifluoromethyl-3,4-dihydro-2H-quinoline-1-carboxylic acid ethyl ester] displayed a solubility of under 0.1 µg/mL.
In the case of `O=C1Cc2cc(CCN3CCN(c4nsc5ccccc45)CC3)c(Cl)cc2N1` [Control C4], the “Maximum Drug Flux” value in series [2] (Table 21, Drug 4, feed 0.5% NaTC/POPC (MFD), permeate 60 wt % decanol in n-decane) was 0.16 μgA/cm^2-min.
In series [3] (setting [4]), `O=C(NOCC1CC1)c1ccc(F)c(F)c1Nc1ccc(I)cc1Cl` [Control C2] returned an AUC90 of 4200 min · μgA/mL and an MDC90 of 101 μgA/mL.
As for `CCOC(=O)N1c2ccc(C(F)(F)F)cc2[C@@H](N(Cc2cc(C(F)(F)F)cc(C(F)(F)F)c2)C(=O)OC)C[C@H]1CC` [Control C1], the AUC90 is under 88 min · μgA/mL in series [3] (Table 11, Drug 1, PBS pH 6.5, 37° C., area under the curve from 0 to 90 minutes); under 100 min · μgA/mL in series [3] (setting [5]); under 100 min · μgA/mL in series [3] (setting [6]). Besides, the MDC90 in series [3] (Table 11, Drug 1, PBS pH 6.5, 37° C., maximum drug concentration between 0 and 90 minutes) was under 1 μgA/mL; in series [3] (setting [5]), under 1 μgA/mL; in series [3] (setting [6]), under 1 μgA/mL. For the same compound, the “Maximum Flux of Drug 1” value is listed as 0.091 μgA/cm^2-min (120 μg/mL) and 0.08 μgA/cm^2-min (120 μgA/mL).
